Where “and” joins values, the source holds several entries; their conditions need not be identical. Identical values can stand only once. Like-named read-outs stand apart in the source and are kept apart here. Where a SMILES comes first, the peptide text is derived from it. Bridges are numbered along the chain shown (N, C = ends).
How the values were obtained:
[1] = system: alternative pathway complement activation; assay: Alternative pathway (AP) complement activation ELISA in normal human serum; assay type: biochemical; conditions: diluted human serum (figure legends 1%; method 10% NHS)
Method: The inhibitory activity of selected peptides in preventing pathway-specific complement activation was evaluated using ELISA as previously described. All assays used normal human serum (NHS), pooled from five unrelated, anonymized healthy donors, obtained with informed consent according to the local ethics committee, and following the guidelines of the Declaration of Helsinki (Blutspendezentrum Basel, Switzerland).
The activity of selected peptides in preventing the activation of the alternative pathway was evaluated by analogy to the classical pathway ELISA described above, with some adjustments. Flat-bottom PolySorb 96-well plates (Thermo Fisher) were coated overnight at room temperature with 40 μg/mL lipopolysaccharide from Salmonella enteritidis (Sigma-Aldrich) in 0.1 M sodium carbonate buffer and washed 5 times with PBS-T. Serial dilutions of peptides were prepared in 10% (v/v) pooled NHS using HBBT + assay buffer (10 mM HEPES, 150 mM NaCl, pH 7.4, 0.5% BSA, 5 mM EGTA, 5 mM MgCl2, and 0.1% Tween-20), with samples diluted in 10% (v/v) NHS. Negative controls included each inhibitor in assay buffer alone, assay buffer only, and 10% (v/v) serum with 10 mM EDTA. HBBT+ with 10% (v/v) pooled NHS served as the 100%-control. Subsequent steps were performed as described above.

[2] = system: classical pathway complement activation; assay: Classical pathway (CP) complement activation ELISA in normal human serum; assay type: biochemical; conditions: for IC50: CP ELISA
Method: The inhibitory activity of selected peptides in preventing pathway-specific complement activation was evaluated using ELISA as previously described. All assays used normal human serum (NHS), pooled from five unrelated, anonymized healthy donors, obtained with informed consent according to the local ethics committee, and following the guidelines of the Declaration of Helsinki (Blutspendezentrum Basel, Switzerland). To assess classical pathway activity, flat-bottom MaxiSorp 96-well plates (Thermo Fisher) were coated overnight at room temperature with 33 μg/mL IgM (Sigma) in a 0.1 M sodium carbonate buffer. Plates were washed 5 times with phosphate-buffered saline (Dubleccòs, Bioconcept) supplemented with 0.05% Tween-20 (PBS-T). Serial dilutions of peptides were prepared in 1% (v/v) NHS using HBBT++ assay buffer (10 mM HEPES, 150 mM NaCl, pH 7.4, 0.5% BSA, 0.15 mM CaCl2, 0.5 mM MgCl2, 0.1% Tween-20), with samples diluted in 1% (v/v) NHS. Negative controls included each inhibitor in assay buffer alone, assay buffer only, and 1% (v/v) NHS with 10 mM EDTA. HBBT++ with 1% (v/v) pooled NHS served as the 100%-control. After incubating for 1 h at 37 °C and shaking at 700 rpm, plates were washed 5 times with PBS-T. Next, 100 μL of biotinylated monoclonal mouse antihuman TCC antibody (1:1000, Hycult, clone: aE11) to detect terminal complement complexes was added to each well, followed by 1 h incubation at room temperature while shaking. After another 5 washes with PBS-T, 100 μL of HRP-conjugated NeutrAvidin (1:10,000, Invitrogen) was added to each well and incubated for 20 min at room temperature while shaking. Plates were washed 5 more times with PBS-T before adding 100 μL of 1-Step Turbo TMB-ELISA solution (Thermo Scientific) to each well. The reaction was allowed to develop until a light blue color appeared, and then stopped with 100 μL of 2 M sulfuric acid. Colorimetric detection was performed at 450 nm by using a plate reader (Synergy HT, Biotek). All assays were conducted in triplicate and normalized against 100% (no inhibitor, 1% (v/v) serum in buffer) and 0% (1% (v/v) serum in EDTA buffer) controls. In the cases of Cp60 and Cp40, 5% (v/v) NHS was used instead of 1% (v/v) NHS in some assays. Inhibition curves were fitted using nonlinear regression to a normalized variable slope model in Prism (v9-10, GraphPad).

human C3b [3] = molecular target: T1, human C3b (Homo sapiens, UniProt P01024); assay: SPR kinetic binding to immobilized human C3b; conditions: for k a, affinity hC3b / k d, affinity hC3b / Kd: SPR, 1:1 Langmuir fit, average of 3 independent experiments, SD in brackets; for Kd: read-out: K D, affinity hC3b
T1 construct: purchased Complement Technology, Tyler, TX, USA
T1 sequence (P01024 23-667 limits assumed): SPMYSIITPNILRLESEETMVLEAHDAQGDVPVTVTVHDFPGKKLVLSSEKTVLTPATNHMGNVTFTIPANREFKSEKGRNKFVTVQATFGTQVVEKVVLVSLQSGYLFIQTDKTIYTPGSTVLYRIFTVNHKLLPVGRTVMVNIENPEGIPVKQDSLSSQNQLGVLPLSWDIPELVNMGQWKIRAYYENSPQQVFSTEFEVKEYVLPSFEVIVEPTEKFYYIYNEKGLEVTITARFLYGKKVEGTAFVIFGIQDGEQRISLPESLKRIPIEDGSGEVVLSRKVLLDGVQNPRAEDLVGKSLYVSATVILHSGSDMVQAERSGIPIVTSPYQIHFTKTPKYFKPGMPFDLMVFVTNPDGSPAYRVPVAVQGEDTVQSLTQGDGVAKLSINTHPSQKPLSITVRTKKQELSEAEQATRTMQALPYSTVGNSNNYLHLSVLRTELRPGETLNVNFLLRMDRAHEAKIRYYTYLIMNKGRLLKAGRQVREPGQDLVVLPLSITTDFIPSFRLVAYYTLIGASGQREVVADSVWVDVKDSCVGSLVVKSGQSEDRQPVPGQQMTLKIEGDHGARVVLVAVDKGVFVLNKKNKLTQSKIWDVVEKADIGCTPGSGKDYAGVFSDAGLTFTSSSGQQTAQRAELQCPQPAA
T1 sequence (P01024 749-1663 partner limits assumed): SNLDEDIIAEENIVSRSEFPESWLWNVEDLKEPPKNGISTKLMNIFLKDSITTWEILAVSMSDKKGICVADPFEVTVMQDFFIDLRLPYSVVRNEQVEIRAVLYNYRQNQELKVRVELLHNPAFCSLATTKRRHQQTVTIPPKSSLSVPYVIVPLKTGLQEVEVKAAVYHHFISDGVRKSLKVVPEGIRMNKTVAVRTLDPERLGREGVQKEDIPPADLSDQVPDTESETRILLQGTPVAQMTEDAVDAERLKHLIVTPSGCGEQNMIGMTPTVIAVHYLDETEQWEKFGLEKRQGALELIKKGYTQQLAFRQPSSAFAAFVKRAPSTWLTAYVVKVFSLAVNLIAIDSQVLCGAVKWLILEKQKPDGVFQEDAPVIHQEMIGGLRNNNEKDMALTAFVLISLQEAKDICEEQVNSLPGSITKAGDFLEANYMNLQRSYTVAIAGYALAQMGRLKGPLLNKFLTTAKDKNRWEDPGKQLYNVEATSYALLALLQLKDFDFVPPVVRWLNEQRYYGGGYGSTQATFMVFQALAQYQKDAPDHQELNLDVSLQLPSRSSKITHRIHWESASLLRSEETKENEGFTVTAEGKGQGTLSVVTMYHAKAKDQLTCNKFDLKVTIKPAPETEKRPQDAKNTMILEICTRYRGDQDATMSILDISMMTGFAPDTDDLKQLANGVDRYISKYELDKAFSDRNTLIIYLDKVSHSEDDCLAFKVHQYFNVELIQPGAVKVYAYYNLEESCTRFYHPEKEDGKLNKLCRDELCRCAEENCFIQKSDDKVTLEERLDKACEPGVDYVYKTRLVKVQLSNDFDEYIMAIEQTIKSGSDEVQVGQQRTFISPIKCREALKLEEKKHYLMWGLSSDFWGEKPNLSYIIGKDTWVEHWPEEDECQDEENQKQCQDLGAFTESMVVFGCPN
Method: Experiments were conducted at 25 °C in HBST buffer (10 mM HEPES, 150 mM NaCl, and 0.05% Tween-20, pH 7.4; XanTec bioanalytics). Human C3b (Complement Technology, Tyler, TX, USA) was immobilized via amine-reactive coupling. […] Individual peptide samples were injected for 120 s, followed by a 180 s dissociation phase. […] Signals from the reference cell and buffer blank injections were subtracted within each dilution series to correct for buffer effects and injection artifacts. Data were fitted to a Langmuir 1:1 binding model to calculate association (k a) and dissociation (k d) rate constants, and the equilibration constant K D is calculated based on the equation: K D = k d/k a. In the case of Cp40 derivatives and Cp60, a single-cycle approach was used for kinetic analysis by injecting 5 increasing concentrations of each compound (0.5-40 nM) consecutively without a regeneration period in between injections. Individual injections within a cycle were 120 s long with a 5 min dissociation phase between injections. […] Analog Cp40 was included in each experimental series as a reference and internal control. Signals from the reference cell and buffer blank injections were subtracted to correct for buffer effects and injection artifacts. Kinetic data were processed in BiaEvaluation (Cytiva) using single-cycle evaluation by global fitting each data set to a Langmuir 1:1 binding model. The reported kinetic parameters (Tables and ) indicate the mean values and standard deviations of three independent experiments. SPR sensorgrams are provided in the Supporting Information.

human C3b [4] = molecular target: T1, human C3b; assay: SPR kinetic binding to immobilized human C3b; conditions: K D determined as steady state affinity, read-out: K D, affinity hC3b, steady state affinity
[5] = first-in-human trials, cited from earlier work

CC[C@H](C)[C@H](NC(C)=O)C(=O)N[C@H]1CSSC[C@@H](C(=O)N[C@H](C(N)=O)[C@@H](C)O)NC(=O)[C@H](CCCN=C(N)N)NC(=O)[C@H](Cc2c[nH]cn2)NC(=O)[C@H](C)NC(=O)CNC(=O)[C@H](Cc2c[nH]c3ccccc23)NC(=O)[C@H](CC(=O)O)NC(=O)[C@H](CCC(N)=O)NC(=O)[C@H](Cc2c[nH]c3ccccc23)NC(=O)[C@H](C(C)C)NC1=O [Cp01, reference compound]
IC50 [1]: 1400 nM
IC50 ([2]; 1% diluted normal human serum): 20000 nM

CC[C@H](C)[C@H](NC(C)=O)C(=O)N[C@H]1CSSC[C@@H](C(=O)N[C@H](C(N)=O)[C@@H](C)O)NC(=O)[C@H](CCCNC(=N)N)NC(=O)[C@H](Cc2c[nH]cn2)NC(=O)[C@H](C)NC(=O)CNC(=O)[C@H](Cc2c[nH]c3ccccc23)NC(=O)[C@H](CC(=O)O)NC(=O)[C@H](CCC(N)=O)NC(=O)[C@H](Cc2c[nH]c3ccccc23)NC(=O)[C@H]([C@@H](C)CC)NC1=O [Cp01-Val3Ile] (Ac-ICIWQDWGAHRCT-NH2; disulfide 2-12)
fold improvement in affinity compared with Cp01 (human C3b [3]; K D ratio vs Cp01): ~10 fold
k a, affinity hC3b (human C3b [3]): 8.8(0.1) 10^5 M^–1 s^–1
k d, affinity hC3b (human C3b [3]): 1.7(0.1) 10^–2 s^–1
Kd (human C3b [3]): 20 nM and 19.8 nM
IC50 [1]: 200 nM
IC50 ([2]; 1% diluted normal human serum, listed as Cp01-V3I): 430 nM
fold enhanced potency for inhibiting complement activation in vitro vs Cp01 ([2]; IC50 ratio vs Cp01): up to 40 fold

CC[C@@H](C)[C@@H]1NC(=O)[C@@H](NC(=O)[C@@H](NC(C)=O)[C@@H](C)CC)CSSC[C@@H](C(=O)N[C@H](C(N)=O)[C@@H](C)O)NC(=O)[C@H](CCCNC(=N)N)NC(=O)[C@H](Cc2c[nH]cn2)NC(=O)[C@H](C)NC(=O)CNC(=O)[C@H](Cc2c[nH]c3ccccc23)NC(=O)[C@H](CC(=O)O)NC(=O)[C@H](CCC(N)=O)NC(=O)[C@H](Cc2c[nH]c3ccccc23)NC1=O [Cp01-Val3aIle]
Kd (human C3b [4]): 545 nM

CC[C@H](C)[C@H](NC(=O)[C@H](N)Cc1ccc(O)cc1)C(=O)N[C@H]1CSSC[C@@H](C(=O)N(C)[C@H](C(N)=O)[C@@H](C)CC)NC(=O)[C@H](CCCNC(=N)N)NC(=O)[C@H](Cc2c[nH]cn2)NC(=O)[C@H](C)NC(=O)CN(C)C(=O)[C@H](Cc2c[nH]c3ccccc23)NC(=O)[C@H](CC(=O)O)NC(=O)[C@H](CCC(N)=O)NC(=O)[C@H](Cc2cn(C)c3ccccc23)NC(=O)[C@H](C(C)C)NC1=O [Cp40, reference compound]
k a, affinity hC3b (human C3b [3]): 17.6(0.3) 10^5 M^–1 s^–1
k d, affinity hC3b (human C3b [3]): 0.1 10^–2 s^–1
k d, affinity hC3b (human C3b [3]; listed as Cp40 Val): 0.1(0.0) 10^–2 s^–1
Kd (human C3b [3]): 0.7 nM
immunogenicity [5]: no evidence of drug-related immunogenicity or increase in antidrug antibodies
safety profile ([5]; single and multiple doses via different routes): good safety profile
IC50 ([2]; 5% human serum): 158 nM

From paper PMC13181761, “New Analogs of the Compstatin Family of Clinical Complement Inhibitors with Low Picomolar Target Affinity” (Journal of Medicinal Chemistry, 2026)
